In ChEMBL document CHEMBL4834469, “Balancing Properties with Carboxylates: A Lead Optimization Campaign for Selective and Orally Active CDK9 Inhibitors” (ACS Med Chem Lett, 2021):

Tests used:
in vivo [1] = conditions: rat, iv, 1 mg/kg
Description: Half life in rat at 1 mg/kg, iv

in vivo [2] = conditions: rat, iv, 1 mg/kg; remark: listed apart in the source
Description: Volume of distribution at steady state in rat at 1 mg/kg, iv

in vivo [3] = conditions: rat, po, 1 mg/kg
in vivo [4] = conditions: rat, po, 1 mg/kg; remark: listed apart in the source
in vitro [5] = conditions: human, plasma
Description: Plasma protein binding in human

in vitro [6] = conditions: rat, plasma
Description: Plasma protein binding in rat

NCI-H929 = assay: cells; conditions: Homo sapiens, NCI-H929, 24 h
Description: Antiproliferative activity against human NCI-H929 cells assessed as reduction in cell viability incubated for 24 hrs by Cell-Titer Glo assay

in vivo [7] = conditions: Sprague-Dawley, rat, iv, 10 mg/kg
Description: Plasma concentration in anesthetized Sprague-Dawley rat upto 10 mg/kg, iv administered as single dose measured after 30 mins

Row | SMILES | half-life (in vivo [1]) [h] | Vd (in vivo [2]) [L/kg] | AUC (in vivo [3]) [ng·h/mL] | bioavailability (in vivo [4]) [%] | fraction unbound (in vitro [5]) | fraction unbound (in vitro [6]) | IC50 (NCI-H929) [nM] | concentration at 0.5 h (in vivo [7]) [ng/mL]
1 | COc1ccc(F)cc1-c1ccnc2[nH]c(C3=CCC(C(=O)O)CC3)cc12 (centres undefined) | 2.1 | 0.51 | 3100 | 70 | 0.002 | 0.004 |  | 
2 | COc1ccc(F)cc1-c1ccnc2[nH]c(C3=CCC(N4CCC(C(=O)O)CC4)CC3)cc12 (centres undefined) |  |  |  |  |  |  | 170 | 
3 | COc1ccc(F)cc1-c1ccnc2[nH]c(C3=CCN([C@H]4CC[C@H](CC(=O)O)CC4)CC3)cc12 | 2.8 | 4.5 | 160 | 21 | 0.037 | 0.087 |  | 
4 | COc1ccc(F)cc1-c1ccnc2[nH]c(C3=CCC(N[C@@H](C(=O)O)C(C)C)CC3)cc12 (some centres undefined) | 0.68 | 1 | < 10 | 0.2 | 0.023 | 0.057 |  | 
5 | COc1ccc(F)cc1-c1ccnc2[nH]c(C3=CCN(c4ccc(CC(=O)O)cc4)CC3)cc12 |  |  |  |  |  |  | > 10000 | 
6 | COc1ccc(F)cc1-c1c(F)cnc2[nH]c(C3=CCN([C@H]4CC[C@H](C(=O)O)CC4)CC3)cc12 | 3.5 | 2.7 | 450 | 28 | 0.059 | 0.106 |  | 9000
7 | CCOC(=O)NS(=O)(=O)N1CC=C(c2cc3c(-c4cc(F)ccc4OC)ccnc3[nH]2)CC1 | 1.6 | 0.29 | 2400 | 64 | < 0.001 | 0.042 |  | 
8 | COc1ccc(F)cc1-c1c(F)cnc2[nH]c(C3=CCN([C@H]4CC[C@@H](C(=O)O)CC4)CC3)cc12 | 3 | 2.6 | 140 | 13 | 0.066 | 0.099 |  | 
9 | COc1ccc(F)cc1-c1ccnc2[nH]c(C3=CCN([C@H]4CC[C@@H](C(=O)O)CC4)CC3)cc12 | 3.2 | 4.7 | 160 | 20 | 0.074 | 0.16 |  | 
10 | COc1ccc(F)cc1-c1c(F)cnc2[nH]c(C3=CCN([C@H]4CC[C@H](CC(=O)O)CC4)CC3)cc12 | 2.8 | 2.9 | 140 | 11 | 0.041 | 0.082 |  | 
11 | COc1ccc(F)cc1-c1ccnc2[nH]c(C3=CCN([C@H]4CC[C@@H](CC(=O)O)CC4)CC3)cc12 | 1.7 | 3.4 | 40 | 7.9 | 0.036 | 0.183 |  | 
12 | COc1ccc(F)cc1-c1ccnc2[nH]c(C3=CCN([C@H]4CC[C@H](C(=O)O)CC4)CC3)cc12 | 3.3 | 1.9 | 400 | 23 | 0.079 | 0.09 |  | 5500
